# In US5817756A, “Pseudo- and non-peptide bradykinin receptor antagonists” (Scios Inc., priority 1995, dated 1998):
# Starred links: 1 amine or outer side, 2 acyl side, 3 side chain; linkers in the order of their positions; H or OH if unused. Non-standard residues stand in square brackets, D forms with d. Residues, ends and D or L forms follow the SMILES beside them. X3 = O=C(Cn1c(=O)n(C2CCN([*:1])CC2)c2ccccc21)[*:2]; X7 = O=C(Cn1c(=O)c2ccccc2c2ccc(N[*:1])cc21)[*:2]; Butenoyl(2E,4-amino) = O=C(/C=C/CN[*:1])[*:2]; X4 = O=C(Cn1c2c(c3ccccc31)CN([*:1])CC2)[*:2]; Oic = O=C(O)[C@@H]1C[C@@H]2CCCC[C@@H]2N1; X1 = O=C(C/C=C/c1ccccc1CN[*:1])[*:2]; X6 = O=C(/C=C/c1ccccc1CCN[*:1])[*:2]; X2 = O=C(/C=C/c1ccccc1CN[*:1])[*:2]; dTic = O=C(O)[C@H]1Cc2ccccc2CN1; 12Ado = NCCCCCCCCCCCC(=O)O; Nphe = O=C(O)CNCc1ccccc1; Ahx = NCCCCCC(=O)O
# Target: T1, human bradykinin B2 receptor (Homo sapiens, UniProt P30411)
# T1 construct: The HindIII/XbaI fragment of one full-length clone, 126A, was inserted into pcDNAI neo vector; expressed in transfected cells
# T1 sequence (P30411 1-391): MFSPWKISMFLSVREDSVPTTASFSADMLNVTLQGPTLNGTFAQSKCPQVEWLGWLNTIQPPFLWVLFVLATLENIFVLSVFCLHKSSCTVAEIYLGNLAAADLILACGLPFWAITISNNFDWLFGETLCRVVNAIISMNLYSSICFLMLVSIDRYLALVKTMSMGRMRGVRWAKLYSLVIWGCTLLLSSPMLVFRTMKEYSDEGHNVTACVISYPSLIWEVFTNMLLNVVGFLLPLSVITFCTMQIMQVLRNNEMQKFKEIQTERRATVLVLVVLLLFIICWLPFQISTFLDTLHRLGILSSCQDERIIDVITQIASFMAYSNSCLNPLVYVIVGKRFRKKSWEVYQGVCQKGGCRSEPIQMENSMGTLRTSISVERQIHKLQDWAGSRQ
# Assay: Radioligand binding, H2O.2 cell membranes, 3H-bradykinin
# Conditions: Table 1, read-out: Radioligand Binding Human 3HBK
# Protocol: (§1) A human bradykinin B2 receptor was expressed in CHO/K cells. Briefly, approximately 2×10^6 plaques from a human uterus λgt10 cDNA library (Clontech Laboratories; Palo Alto, Calif.) were screened using a PCR fragment containing the coding region of the rat B2 receptor. This probe was generated by random-primed synthesis in the presence of α[^32 P]dATP. Duplicate filters were hybridized overnight at 42° C. in 1M NaCl, 50 mM Tris pH 7.5, 5× Denhardt's, 200 μg/ml salmon sperm DNA, 1% SDS, and 20% formamide. The filters were washed at 65° C. in 1× SSC and 1% SDS. Coincident positively hybridizing plaques were purified and rescreened with the same probe and stringency conditions. EcoRI fragments of positive clones were inserted into Bluescript/KS II+vector (Stratagene; La Jolla, Calif.) for sequence determination.
# (§2) The nucleotide sequence of the cloned human B2 receptors was determined using double-stranded DNA and the dideoxy chain termination method. Commercially available T3 and T7 oligonucleotides (USB; Cleveland, Ohio) and synthetic 21-mer oligonucleotides (DNA/RNA Synthesizer; applied Biosystems Inc.; Palo Alto, Calif.) from both the known rat sequence and the determined human sequence were used to identify the nucleotide sequence from the 5' untranslated end to the BglII site in the 3' untranslated end of the clone.
# (§3) CHO/K cells were plated in 2 ml of growth medium (Ham's F12 with 10% FBS) per 6 well plate and incubated at 37° C., 5% CO2 until they were 60% confluent. For each well, 4, 12, and 16 μg of DNA was diluted in 100 μl Opti-MEM I reduced serum medium (Gibco/BRL; Gaithersburg, Md.). 12 μl of TransfectASE reagent (Gibco/BRL) was diluted in a separate aliquot of 100 μl Opti-MEM I. The DNA and TransfecASE solutions were combined, mixed gently, and incubated at 25° C. for 15 minutes. This solution was then diluted to 1 ml with Opti-MEM I. Each well was washed twice with Opti-MEM I and 1 ml of the DNA/TransfectAse complex was added to each well. After a 5 hour incubation at 37° C. and 5% CO2, 1 ml of Ham's F12 with 20% FBS was added to each well and cells were incubated overnight. Media was replaced with growth medium and incubated for additional 24 hours.
# (§4) This assay measures the ability of a bradykinin antagonist compound to compete for binding to the human B2 receptor with tritiated bradykinin or tritiated NPC17731, a bradykinin analog which is known to bind the B2 receptor and act as a bradykinin antagonist.
# (§5) H2O.2 cells were grown to confluency in Ham's F12 media containing 10% FBS and 500 μg/ml Geneticin. Growth media was aspirated and the monolayer washed once with Dulbecco's PBS without Ca^++ and Mg^++. Cells were scraped in Dulbecco's PBS and centrifuged at 2,000×g for 10 minutes. Pellets were resuspended in 25 mM TES, 1 mM 1,10-phenanthroline pH 6.8 buffer and homogenized using a Ploytron at setting 5 for 10 seconds. An aliquot was taken for a protein determination using a BioRad protein assay kit. Membranes were centrifuged at 48,000×g for 10 minutes at 4° C. Pellets were resuspended in the TES buffer with 0.1% BSA and 0.014% bacitracin. 0.5 ml aliquots were frozen in liquid N2 and stored at -80° C. for up to 2 weeks.
# (§6) Membranes from H2O.2 cells previously prepared were thawed at 37° C. and diluted in 25 mM TES, […] 1,10-phenanthroline pH 6.8 containing BSA and bactiracin. […] Non-specific binding was determined with 1 μM bradykinin. The tubes were incubated 90 minutes at 25° C. and the assay was terminated by rapid vacuum filtration onto Whatman GF/B filters presoaked with 0.2% PEI for 3 hours followed by 2×3 ml aliquots of ice-cold 50 mM Tris, pH 7.4. Radioactivity was counted with a Beckman scintillation counter.
row,Structure (SMILES),Ki
1,N=C(N)NCCC[C@@H](N)C(=O)N[C@@H](CCCNC(=N)N)C(=O)NCc1ccccc1/C=C/CC(=O)N[C@@H](CO)C(=O)N1Cc2ccccc2C[C@@H]1C(=O)N1[C@H](C(=O)N[C@@H](CCCNC(=N)N)C(=O)O)C[C@@H]2CCCC[C@@H]21 (H-[dR]R[X1]S[dTic][Oic]R-OH),51 nM

# Same assay, conditions: Table 2, read-out: Radioligand Binding, Ki Human 3HBK
row,Ki,Structure (SMILES)
1,570 nM,N=C(N)NCCC[C@@H](N)C(=O)N[C@@H](CCCNC(=N)N)C(=O)N1CCc2c(n(CCC(=O)N3CCC4(CC3)C(=O)N(CC(=O)N[C@@H](CCCNC(=N)N)C(=O)O)CN4c3ccccc3)c3ccccc23)C1 [Compound 3]
2,1400 nM,N=C(N)NCCC[C@@H](N)C(=O)N[C@@H](CCCNC(=N)N)C(=O)N1CCC2(CC1)C(=O)N(CC(=O)N1CCc3c(n(CC(=O)N[C@@H](CCCNC(=N)N)C(=O)O)c4ccccc34)C1)CN2C1CCCCC1 [Compound 4]
3,325 nM,N=C(N)NCCC[C@@H](N)C(=O)N[C@@H](CCCNC(=N)N)C(=O)N1CCC2(CC1)C(=O)N(CC(=O)N1CCc3c(c4ccccc4n3CC(=O)N[C@@H](CCCNC(=N)N)C(=O)O)C1)CN2c1ccccc1 [Compound 7]
4,223 nM,N=C(N)NCCC[C@@H](N)C(=O)N[C@@H](CCCNC(=N)N)C(=O)N1CCC2(CC1)C(=O)N(CC(=O)N1CCc3c(n(CCC(=O)N[C@@H](CCCNC(=N)N)C(=O)O)c4ccccc34)C1)CN2c1ccccc1 [Compound 8]
5,129 nM,COc1ccc(N2CN(CC(=O)N3CCc4c(c5ccccc5n4CC(=O)N[C@@H](CCCNC(=N)N)C(=O)O)C3)C(=O)C23CCN(C(=O)[C@H](CCCNC(=N)N)NC(=O)[C@H](N)CCCNC(=N)N)CC3)cc1 [Compound 9]
6,229 nM,N=C(N)NCCC[C@@H](N)C(=O)N[C@@H](CCCNC(=N)N)C(=O)N1CCC2(CC1)C(=O)N(CC(=O)N1CCc3c(c4ccccc4n3CC(=O)N[C@@H](CCCNC(=N)N)C(=O)O)C1)CN2C1CCCCC1 [Compound 10]
7,473 nM,CCCN1CN(CC(=O)N2CCc3c(c4ccccc4n3CC(=O)N[C@@H](CCCNC(=N)N)C(=O)O)C2)C(=O)C12CCN(C(=O)[C@H](CCCNC(=N)N)NC(=O)[C@H](N)CCCNC(=N)N)CC2 [Compound 11]
8,168 nM,N=C(N)NCCC[C@@H](N)C(=O)N[C@@H](CCCNC(=N)N)C(=O)N1CCC2(CC1)C(=O)N(CC(=O)N1CCc3c(c4ccccc4n3CC(=O)N[C@@H](CCCNC(=N)N)C(=O)O)C1)CN2CC1CCCCC1 [Compound 12]
9,78.4 nM,Cc1cc(C)nc(NCCC[C@@H](NC(=O)Cn2c3c(c4ccccc42)CCN(C(=O)CN2CN(c4ccccc4)C4(CCN(C(=O)[C@H](CCCNC(=N)N)NC(=O)[C@H](N)CCCNC(=N)N)CC4)C2=O)C3)C(N)=O)n1 [Compound 14]
10,285 nM,Cc1cc(C)nc(NCCC[C@@H](NC(=O)Cn2c3c(c4ccccc42)CCN(C(=O)CN2CN(c4ccccc4)C4(CCN(C(=O)[C@@H](N)CCCNC(=N)N)CC4)C2=O)C3)C(N)=O)n1 [Compound 15]
11,212 nM,Cc1cc(C)nc(NCCC[C@@H](NC(=O)Cn2c3c(c4ccccc42)CCN(C(=O)CN2CN(c4ccccc4)C4(CCN(C(=O)[C@H](N)CCCNC(=N)N)CC4)C2=O)C3)C(N)=O)n1 [Compound 16]
12,52 nM,Cc1cc(C)nc(NCCC[C@@H](NC(=O)Cn2c3c(c4ccccc42)CN(C(=O)CN2CN(CC4CCCCC4)C4(CCN(C(=O)[C@H](CCCNC(=N)N)NC(=O)[C@H](N)CCCNC(=N)N)CC4)C2=O)CC3)C(N)=O)n1 [Compound 20]

# Target: T1, human bradykinin B2 receptor
# Assay: Radioligand binding, H2O.2 cell membranes, 3H-NPC17731
# Conditions: not given
# Protocol: as §1, §2, §3, §4, §5, §6
row,Structure (SMILES),Ki
1,N=C(N)NCCC[C@@H](N)C(=O)N[C@@H](CCCNC(=N)N)C(=O)N1CCC2(CC1)C(=O)N(CC(=O)N[C@@H](CO)C(=O)N1Cc3ccccc3C[C@@H]1C(=O)N1[C@H](C(=O)N[C@@H](CCCNC(=N)N)C(=O)O)C[C@@H]3CCCC[C@@H]31)CN2c1ccccc1 [drawing 59],7.8 nM

# Same assay, conditions: Table 1; 3H-NPC17731; read-out: Radioligand Binding Human 3H17731
row,Structure (SMILES),Ki
1,N=C(N)NCCC[C@@H](N)C(=O)N[C@@H](CCCNC(=N)N)C(=O)NCCCCCCCCCCCC(=O)N[C@@H](CO)C(=O)N1Cc2ccccc2C[C@@H]1C(=O)N1[C@H](C(=O)N[C@@H](CCCNC(=N)N)C(=O)O)C[C@@H]2CCCC[C@@H]21 (H-[dR]R[12Ado]S[dTic][Oic]R-OH),31 nM
2,N=C(N)NCCC[C@@H](N)C(=O)N[C@@H](CCCNC(=N)N)C(=O)NCc1ccccc1/C=C/CC(=O)N[C@@H](CO)C(=O)N1Cc2ccccc2C[C@@H]1C(=O)N1[C@H](C(=O)N[C@@H](CCCNC(=N)N)C(=O)O)C[C@@H]2CCCC[C@@H]21 (H-[dR]R[X1]S[dTic][Oic]R-OH),17 nM

# Other lines, results leading:
row,Ki,Structure (SMILES)
1,100 nM,N=C(N)NCCC[C@@H](N)C(=O)N[C@@H](CCCNC(=N)N)C(=O)NCCCCCC(=O)N[C@@H](CO)C(=O)N1Cc2ccccc2C[C@@H]1C(=O)N1[C@H](C(=O)N[C@@H](CCCNC(=N)N)C(=O)O)C[C@@H]2CCCC[C@@H]21 (H-[dR]R[Ahx]S[dTic][Oic]R-OH)
2,229 nM,"N=C(N)NCCC[C@@H](N)C(=O)N[C@@H](CCCNC(=N)N)C(=O)NC/C=C/C(=O)N[C@@H](CO)C(=O)N1Cc2ccccc2C[C@@H]1C(=O)N1[C@H](C(=O)N[C@@H](CCCNC(=N)N)C(=O)O)C[C@@H]2CCCC[C@@H]21 (H-[dR]R[Butenoyl(2E,4-amino)]S[dTic][Oic]R-OH)"
3,28 nM,N=C(N)NCCC[C@@H](N)C(=O)N[C@@H](CCCNC(=N)N)C(=O)NCc1ccccc1/C=C/C(=O)N(CC(=O)N[C@@H](CO)C(=O)N1Cc2ccccc2C[C@@H]1C(=O)N1[C@H](C(=O)N[C@@H](CCCNC(=N)N)C(=O)O)C[C@@H]2CCCC[C@@H]21)Cc1ccccc1 (H-[dR]R[X2][Nphe]S[dTic][Oic]R-OH)
4,58 nM,N=C(N)NCCC[C@@H](N)C(=O)N[C@@H](CCCNC(=N)N)C(=O)N1CCC(n2c(=O)n(CC(=O)N[C@@H](CO)C(=O)N3Cc4ccccc4C[C@@H]3C(=O)N3[C@H](C(=O)N[C@@H](CCCNC(=N)N)C(=O)O)C[C@@H]4CCCC[C@@H]43)c3ccccc32)CC1 (H-[dR]R[X3]S[dTic][Oic]R-OH)
5,78 nM,N=C(N)NCCC[C@@H](N)C(=O)N[C@@H](CCCNC(=N)N)C(=O)N1CCc2c(c3ccccc3n2CC(=O)N[C@@H](CO)C(=O)N2Cc3ccccc3C[C@@H]2C(=O)N2[C@H](C(=O)N[C@@H](CCCNC(=N)N)C(=O)O)C[C@@H]3CCCC[C@@H]32)C1 (H-[dR]R[X4]S[dTic][Oic]R-OH)
6,23 nM,N=C(N)NCCC[C@@H](N)C(=O)N[C@@H](CCCNC(=N)N)C(=O)NCCc1ccccc1/C=C/C(=O)N[C@@H](CO)C(=O)N1Cc2ccccc2C[C@@H]1C(=O)N1[C@H](C(=O)N[C@@H](CCCNC(=N)N)C(=O)O)C[C@@H]2CCCC[C@@H]21 (H-[dR]R[X6]S[dTic][Oic]R-OH)
7,3.3 nM,N=C(N)NCCC[C@@H](N)C(=O)N[C@@H](CCCNC(=N)N)C(=O)Nc1ccc2c3ccccc3c(=O)n(CC(=O)N[C@@H](CO)C(=O)N3Cc4ccccc4C[C@@H]3C(=O)N3[C@H](C(=O)N[C@@H](CCCNC(=N)N)C(=O)O)C[C@@H]4CCCC[C@@H]43)c2c1 (H-[dR]R[X7]S[dTic][Oic]R-OH)
